Laboratory results: US6534524B1, “Indazole compounds and pharmaceutical compositions for inhibiting protein kinases, and methods for their use” (Agouron Pharmaceuticals, Inc., priority 1999, dated 2003)
pKi: −log10 of the molar value. Read-outs that look alike come from different tables or passages of the source.

Experiments:
human FGF-R1 = human FGF-R1 (Homo sapiens, UniProt P11362, C488A/C584S/L457V); experiment: FGF-R spectrophotometric assay
LCK tyrosine kinase = target: T1, LCK tyrosine kinase (Homo sapiens, UniProt P06239, C224D/P223M); experiment: LCK spectrophotometric assay; assay type: biochemical; conditions: Table 1; read-out: Lck-P Ki
T1 construct: starting from amino acid residue 223 to the end of the protein at residue 509; made in house; host or cells: insect cells
T1 sequence (P06239 223-509 P223M/C224D): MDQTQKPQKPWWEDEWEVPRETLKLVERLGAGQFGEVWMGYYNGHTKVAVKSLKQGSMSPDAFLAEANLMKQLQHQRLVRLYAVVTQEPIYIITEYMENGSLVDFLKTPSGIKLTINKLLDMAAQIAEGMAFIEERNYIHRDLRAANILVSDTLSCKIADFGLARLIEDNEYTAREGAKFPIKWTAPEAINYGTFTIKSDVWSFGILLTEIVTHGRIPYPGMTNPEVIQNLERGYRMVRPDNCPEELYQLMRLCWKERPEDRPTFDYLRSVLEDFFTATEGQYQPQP

[1] = Human liver microsome (HLM) assay; assay type: in vitro ADME; conditions: human liver microsomes, 5 μM test compound
Summary of the method: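 LC-MS quantified test compound remaining after 0 and 2 h incubation with human liver microsomes. Triplicate samples, clarified by 10 min centrifugation at 14000 g.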

[2] = Determination of inhibitor concentration in mouse plasma after intraperitoneal and oral dosing; assay type: in vivo; conditions: IP, 50 mg/kg, vehicle PEG400:H2O pH 2.3 30:70
Summary of the method: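 Plasma levels quantified by HPLC or LC-MS using a standard curve prepared in mouse plasma, following ethyl acetate extraction with internal standard and sodium hydroxide. Sampling at 0.5, 1, 4 h (ocular bleed) and 7 h (cardiac puncture) after oral or intraperitoneal dosing.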

CDK2/Cyclin A = CDK2/Cyclin A (Homo sapiens, UniProt P24941); experiment: CDK2/Cyclin A assay ([32P]ATP, Rb fragment); assay type: biochemical; conditions: Table 1
Mouse PK assay = assay type: in vivo; conditions: female, B6, plasma, oral
Description: Mouse PK Assay The pharmacolinetics (e.g., absorption and elimination) of drugs in mice were analyzed using the following experiment. […] This was administered orally (p.o.) and intraperitoneally (i.p.) at variable doses to two distinct groups (n=4) of B6 female mice. Blood samples were collected via an orbital bleed at time points: 0 hour (pre-dose), 0.5 h, 1.0 h, 2.0 h, and 4.0 h, and 7.0 h post dose. Plasma was obtained from each sample by centrifugation at 2500 rpm for 5 min. Test compound was extracted from the plasma by an organic protein precipitation method. For each time bleed 50 μL of plasma was combined with 1.0 mL of acetonitrile, vortexed for 2 min. and then spun at 4000 rpm for 15 min. to precipitate the protein and extract out the test compound. Next, the acetonitrile supernatant (the extract containing test compound) was poured into new test tubes and evaporated on a hot plate (25° C.) under a steam of N2 gas. […] Test-compound plasma concentrations (μg/mL) were determined by a comparison to standard curve (peak area vs. conc. μg/mL) using known concentrations of test compound extracted from plasma samples in the manner described above. […] The quantitated test samples were plotted for visual display using Kalidagraph software and their pharmacokinetic parameters were determined using WIN NONLIN software.

[3] = target: unphosphorylated VEGF-R2Δ50 (FLVK) (Homo sapiens, UniProt P35968, DEL940-989/E990V); experiment: VEGF-R2 coupled spectrophotometric assay, unphosphorylated VEGF-R2Δ50 (FLVK)
Chain of unphosphorylated VEGF-R2Δ50 (FLVK) (P35968 with tags, fused parts or gaps DEL940-989/E990V limits assumed): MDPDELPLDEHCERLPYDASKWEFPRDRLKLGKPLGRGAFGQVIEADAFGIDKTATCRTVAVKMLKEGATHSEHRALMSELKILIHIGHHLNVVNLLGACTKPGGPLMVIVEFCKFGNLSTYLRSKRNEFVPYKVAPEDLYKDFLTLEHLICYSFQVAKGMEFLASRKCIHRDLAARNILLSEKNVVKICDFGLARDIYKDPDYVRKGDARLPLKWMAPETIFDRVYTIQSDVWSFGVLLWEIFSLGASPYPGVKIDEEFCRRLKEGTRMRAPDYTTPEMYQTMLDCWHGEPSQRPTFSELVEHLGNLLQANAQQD

CDK4/Cyclin D3 complex = CDK4/Cyclin D3 complex (Homo sapiens, UniProt P11802); experiment: CDK4/Cyclin D assay ([32P]ATP, Rb fragment)
Chain of CDK4/Cyclin D3 complex (P11802 whole entry, the tested form may be a part): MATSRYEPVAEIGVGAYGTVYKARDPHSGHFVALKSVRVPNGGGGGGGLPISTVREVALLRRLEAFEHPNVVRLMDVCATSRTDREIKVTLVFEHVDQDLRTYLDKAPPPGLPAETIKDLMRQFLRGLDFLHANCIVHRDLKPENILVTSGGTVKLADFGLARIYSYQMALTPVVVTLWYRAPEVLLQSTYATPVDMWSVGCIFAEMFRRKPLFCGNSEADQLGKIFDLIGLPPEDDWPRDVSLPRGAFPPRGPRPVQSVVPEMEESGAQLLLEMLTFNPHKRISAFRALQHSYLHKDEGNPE
Chain of CDK4/Cyclin D3 complex (P30281 whole entry partner, the tested form may be a part): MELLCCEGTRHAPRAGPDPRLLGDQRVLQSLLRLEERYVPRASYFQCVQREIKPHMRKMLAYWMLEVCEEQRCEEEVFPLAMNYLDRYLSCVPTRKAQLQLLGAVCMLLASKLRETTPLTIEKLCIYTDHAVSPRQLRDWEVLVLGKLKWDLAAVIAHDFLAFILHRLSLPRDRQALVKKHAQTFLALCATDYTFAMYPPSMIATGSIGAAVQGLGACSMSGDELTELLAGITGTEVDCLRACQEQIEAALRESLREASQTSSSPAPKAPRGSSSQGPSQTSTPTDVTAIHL

human CHK1 (FL-CHK1) = target: T2, human CHK1 (FL-CHK1) (Homo sapiens, UniProt O14757); experiment: CHK1 assay (coupled spectrophotometric, Syntide-2); assay type: biochemical; conditions: read-out: CHK-1 Ki
T2 construct: C-terminally His-tagged full-length human CHK1 (FL-CHK1); made in house; host or cells: baculovirus/insect cell system
T2 sequence (O14757 1-476): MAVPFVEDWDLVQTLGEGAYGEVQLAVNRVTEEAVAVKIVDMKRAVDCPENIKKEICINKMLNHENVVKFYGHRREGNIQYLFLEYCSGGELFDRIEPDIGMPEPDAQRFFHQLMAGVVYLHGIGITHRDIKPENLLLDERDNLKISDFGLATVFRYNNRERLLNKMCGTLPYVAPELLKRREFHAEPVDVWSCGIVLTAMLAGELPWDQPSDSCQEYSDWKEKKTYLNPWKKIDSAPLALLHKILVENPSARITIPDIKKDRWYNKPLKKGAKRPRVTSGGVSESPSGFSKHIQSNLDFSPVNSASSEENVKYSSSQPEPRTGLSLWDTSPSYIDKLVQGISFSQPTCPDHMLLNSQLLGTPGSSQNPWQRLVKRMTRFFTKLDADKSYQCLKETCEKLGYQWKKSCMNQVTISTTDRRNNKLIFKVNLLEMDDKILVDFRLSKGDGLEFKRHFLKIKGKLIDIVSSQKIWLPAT
Summary of the method: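 Full-length C-terminally His-tagged human CHK1 expressed in baculovirus/insect cells, used at 10 nM with Syntide-2 substrate. ADP formation coupled via PK/LDH to NADH oxidation, followed as absorbance decrease at 340 nm. Ki from initial rates at varying compound concentrations.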

[4] = target: phosphorylated VEGF-R2Δ50 (FLVK-P) (Homo sapiens, UniProt P35968, DEL940-989/E990V); experiment: VEGF-R2 coupled spectrophotometric assay, phosphorylated VEGF-R2Δ50 (FLVK-P)
Chain of phosphorylated VEGF-R2Δ50 (FLVK-P) (P35968 with tags, fused parts or gaps DEL940-989/E990V limits assumed): as the sequence (P35968 with tags, fused parts or gaps DEL940-989/E990V limits assumed) above

[5] = Isomerization under assay conditions; assay type: physicochemical; conditions: Z-isomer
Description: Example 33(h) was prepared in the same reaction as Example 33(d). […] Found: C, (66.36), H, (4.08), N, (11.49), S, (6.55).

CDK1 = CDK1 (Homo sapiens, UniProt P06493); experiment: CDK1 inhibition; assay type: biochemical; conditions: Table 3
Chain of CDK1 (P06493 whole entry, species assumed, the tested form may be a part): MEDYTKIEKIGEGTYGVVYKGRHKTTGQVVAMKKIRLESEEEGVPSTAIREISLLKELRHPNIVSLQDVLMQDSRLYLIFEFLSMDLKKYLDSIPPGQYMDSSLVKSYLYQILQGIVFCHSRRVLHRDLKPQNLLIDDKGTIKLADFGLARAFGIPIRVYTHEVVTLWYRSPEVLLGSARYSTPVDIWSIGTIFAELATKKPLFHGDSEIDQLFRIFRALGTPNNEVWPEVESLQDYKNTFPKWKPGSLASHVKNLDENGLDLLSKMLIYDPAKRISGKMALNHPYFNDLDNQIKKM
Chain of CDK1 (P14635 whole entry partner, species assumed, the tested form may be a part): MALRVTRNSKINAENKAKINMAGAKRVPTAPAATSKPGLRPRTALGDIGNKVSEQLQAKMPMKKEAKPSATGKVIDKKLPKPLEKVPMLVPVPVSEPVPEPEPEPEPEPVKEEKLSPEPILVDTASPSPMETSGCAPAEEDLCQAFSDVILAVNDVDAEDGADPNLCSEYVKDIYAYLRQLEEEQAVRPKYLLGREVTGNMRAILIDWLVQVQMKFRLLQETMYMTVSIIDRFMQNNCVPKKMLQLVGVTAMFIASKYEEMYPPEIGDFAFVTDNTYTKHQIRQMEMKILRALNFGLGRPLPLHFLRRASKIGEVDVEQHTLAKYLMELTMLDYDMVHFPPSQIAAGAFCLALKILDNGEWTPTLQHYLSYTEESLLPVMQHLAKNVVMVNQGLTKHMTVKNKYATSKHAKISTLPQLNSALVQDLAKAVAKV

[6] = target: T3, phosphorylase kinase (truncated catalytic gamma subunit) (Oryctolagus cuniculus, UniProt P00518); experiment: Phosphorylase kinase assay; assay type: biochemical; conditions: 10 μM of compound
T3 construct: (gamma subunit) of phosphorylase kinase (amino acids 1-298); made in house
T3 sequence (P00518 2-299 limits assumed): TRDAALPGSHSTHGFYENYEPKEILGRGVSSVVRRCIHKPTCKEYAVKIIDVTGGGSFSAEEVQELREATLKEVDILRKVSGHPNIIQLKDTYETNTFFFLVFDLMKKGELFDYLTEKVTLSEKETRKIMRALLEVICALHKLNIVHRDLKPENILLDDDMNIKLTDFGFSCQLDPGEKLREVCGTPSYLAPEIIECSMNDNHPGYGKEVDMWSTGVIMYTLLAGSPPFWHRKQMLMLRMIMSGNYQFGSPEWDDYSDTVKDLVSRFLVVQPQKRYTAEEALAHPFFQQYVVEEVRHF
Description: Phosphorylase Kinase Assay. In the assay, the purified catalytic subunit is used to phosphorylate phosphorylase b using radiolabled ATP. Briefly, 1.5 mg/ml of phosphorylase b is incubated with 10 nM phosphorylase kinase in 10 Mm MgCl2, 50 mM Hepes pH 7.4, at 37° C. […] The reaction was terminated and proteins were precipitated by the addition of TCA to 10% final concentration. […] The filter plate was then extensively washed with 20% TCA, and dried. Scintilation fluid was then added to the plate and incorporated radiolabel was counted on a Wallac microbeta counter.

Chain of human FGF-R1 (P11362 456-766 L457V/C488A/C584S): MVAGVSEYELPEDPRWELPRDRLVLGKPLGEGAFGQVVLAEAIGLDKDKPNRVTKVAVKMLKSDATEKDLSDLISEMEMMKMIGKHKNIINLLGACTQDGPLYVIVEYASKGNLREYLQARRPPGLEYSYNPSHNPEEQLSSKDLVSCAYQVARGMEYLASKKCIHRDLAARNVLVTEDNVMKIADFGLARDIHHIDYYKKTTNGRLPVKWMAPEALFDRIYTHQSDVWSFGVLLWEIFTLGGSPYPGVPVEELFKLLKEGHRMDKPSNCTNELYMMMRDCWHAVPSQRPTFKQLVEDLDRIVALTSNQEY

In the case of `COc1cc(-c2ccc3c(/C=C/c4ccc(OC)c(OC)c4)n[nH]c3c2)ccc1O` [Example 1(a), 3-[E-2-(3,4-Dimethoxy-phenyl)vinyl]-6-(3-methoxy-4-hydroxy-phenyl)-1H-indazole], the pKi (human FGF-R1) was 7.57, the pKi (LCK tyrosine kinase) was 7.06 and the “% remain (HLM, 2 h)” value [1] was 98%. The AUClast [2] was 0.691 µg·h/mL, the Cmax [2] was 0.283 µg/mL and the “plasma half-life (T1/2)” value [2] was 2.4 h. It also gave a pKi (CDK2/Cyclin A) of 7.72, an AUC (Mouse PK assay) of 0.33 µg·h/mL and a pKi ([3]; FLVK Ki, Table 1) of 9.52. It also gave a pKi (CDK4/Cyclin D3 complex) of 7.89, a pKi (human CHK1 (FL-CHK1); Table 1) of 8.28 and a pKi [4] of 8.70.

With `O=C(Nc1cccc(Cl)c1)c1ccccc1Sc1ccc2c(/C=C\c3ccccn3)n[nH]c2c1` [Example 33(h), 6-[2-(3-Chlorophenylcarbamoyl)phenylsulfanyl]-3-Z-[2-(pyridin-2-yl)ethenyl]-1H-indazole] the “Isomerization under assay conditions” value [5] was “found to isomerize to Example 33(d) under assay conditions”.

In the case of `C(=C\c1n[nH]c2cc(-c3ccnc4[nH]ccc34)ccc12)/c1ccccc1` [Example 52(b), 6-(7-Azaindol-4-yl)-3-E-styryl-1H-indazole], the pKi (CDK1) was 7.39, the inhibition at 10 µM [6] was 92% and the inhibition at 1 µM ([3]; read-out: FLVK % inhibition) was 94%. It also gave a pKi (human CHK1 (FL-CHK1); Table 3) of 7.10.
